Assay results as given in PubChem BioAssay (NCI).
Where “and” joins values, the source holds several entries; their conditions need not be identical. Equal entries are not always repeated.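 Compound exposure: 48 hours, 5 concentrations, 96-well plates. Abbreviation: GI50, concentration required for 50% inhibition of growth. TGI is the concentration that stops growth completely.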

Tests used:
Test in all cases: DTP human tumour cell line panel, 48 h
[1] = test system: SK-OV-3 ovarian
[2] = test system: OVCAR-8 ovarian
[3] = test system: A549 NSCLC
[4] = test system: HOP-62 NSCLC
[5] = test system: HT29 colon
[6] = test system: NCI-H522 lung
[7] = test system: SK-MEL-2 melanoma
[8] = test system: EKVX NSCLC
[9] = test system: SNB-19 CNS

| SMILES | TGI [1] | TGI [2] | TGI [3] | TGI [4] | TGI [5] | TGI [6] | TGI [7] | TGI [8] | GI50 [6] | TGI [9] | GI50 [1] | GI50 [2] | GI50 [3] | GI50 [7] | GI50 [8] | GI50 [9] | GI50 [4] | GI50 [5] |
| --- | --- | --- | --- | --- | --- | --- | --- | --- | --- | --- | --- | --- | --- | --- | --- | --- | --- | --- |
| O=C1c2ccccc2C(=O)C1(Cl)C1(S(=O)(=O)O)c2ccccc2-c2ccccc21 | > 100 µM | > 100 µM | > 100 µM | > 100 µM | > 100 µM | > 100 µM |  |  |  |  |  |  |  |  |  |  |  |  |
| O=S(O)CCCCSSCC(O)C(O)CSSCCCCS(=O)O (stereo unspecified) | > 100 µM | 96.5 µM and > 100 µM | > 100 µM | > 100 µM | 24.4 µM and 27 µM | 20 µM and 30.4 µM | 37.4 µM and 49.8 µM | > 100 µM and 93.1 µM | 6.48 µM and 13 µM | > 100 µM |  |  |  |  |  |  |  |  |
| Cc1ccc(SC(C)/C=C/NNC2=NC(c3ccccc3)C(c3ccccc3)=NN2)cc1 (stereo unspecified) | > 100 µM | > 100 µM | > 100 µM |  | 27.3 µM | 88.9 µM | > 100 µM | > 100 µM |  |  |  |  |  |  |  |  |  |  |
| CCOP(=O)(Cc1ccc(CP(=O)(OCC)OCC)n1C)OCC | > 100 µM | > 100 µM | > 100 µM | > 100 µM | > 100 µM | > 100 µM | > 100 µM | > 100 µM |  | > 100 µM |  |  |  |  |  |  |  |  |
| CC(O)C(N=Cc1ccccc1[O-])C(=O)[O-].CC(O)C(N=Cc1ccccc1[O-])C(=O)[O-].[Co+2] (stereo unspecified) | > 100 µM | > 100 µM | > 100 µM |  |  | > 100 µM | > 100 µM | > 100 µM | > 100 µM | > 100 µM | 70.9 µM | > 100 µM | > 100 µM | > 100 µM | > 100 µM | > 100 µM |  |  |
| CC(=O)O.CC(=O)O.CC(=O)O.CC(=O)O.CC(=O)O.CC(=O)O.O.[Ti].[Ti] |  | > 100 µM | > 100 µM | > 100 µM | > 100 µM | > 100 µM | > 100 µM | > 100 µM | > 100 µM | > 100 µM |  | > 100 µM | > 100 µM | > 100 µM | > 100 µM | 65.6 µM | > 100 µM | > 100 µM |
| COC(=O)C1=C(C)N(NC(=O)c2ccccc2)C(C)(O)C12CCOC2=O (stereo unspecified) | > 100 µM | > 100 µM | > 100 µM | > 100 µM | > 100 µM | > 100 µM | 2.41 µM | > 100 µM |  | > 100 µM |  |  |  |  |  |  |  |  |
| CS(=O)(=O)N/N=C/CN1C(=O)c2ccccc2C1=O | > 100 µM | > 100 µM | > 100 µM | > 100 µM | > 100 µM | > 100 µM | > 100 µM | > 100 µM |  | > 100 µM |  |  |  |  |  |  |  |  |
| O=[N+]([O-])c1nccn1CC(O)c1ccc(F)cc1 (stereo unspecified) | > 100 µM | > 100 µM | > 100 µM | > 100 µM | > 100 µM | > 100 µM | > 100 µM | > 100 µM |  | > 100 µM |  |  |  |  |  |  |  |  |
| COc1ccc(NC(=O)CCc2cc(-c3ccc(O)c(OC)c3)nc(NC#N)n2)cc1 | > 100 µM | > 100 µM | > 100 µM | > 100 µM | > 100 µM |  | > 100 µM | > 100 µM |  | > 100 µM |  |  |  |  |  |  |  |  |
| O=C(O)CNc1cc(-c2ccccc2)nc(NCC(=O)O)n1 | > 100 µM | > 100 µM | > 100 µM | > 100 µM | > 100 µM | > 100 µM | > 100 µM | > 100 µM |  | > 100 µM |  |  |  |  |  |  |  |  |
| O=[n+]1c2c(n([O-])c3ccccc31)CCCCCCCCCC2 | > 100 µM |  | > 100 µM |  | > 100 µM | > 100 µM | > 100 µM | > 100 µM |  | > 100 µM |  |  |  |  |  |  |  |  |
| Cc1ccc(S(=O)(=O)NCC2CCCCC2=O)cc1 (stereo unspecified) | > 100 µM | > 100 µM | > 100 µM |  | > 100 µM | > 100 µM | > 100 µM | > 100 µM |  | > 100 µM |  |  |  |  |  |  |  |  |
| C=C(CCCCC)CN1CCCC1[C@@](C)(O)CC(=O)OCC (stereo partly specified) | > 100 µM | > 100 µM | > 100 µM | > 100 µM | > 100 µM | > 100 µM | > 100 µM | > 100 µM |  | > 100 µM |  |  |  |  |  |  |  |  |
| O=C1OC(c2ccccc2)=N/C1=C/C=C/c1ccco1 | > 100 µM | > 100 µM | > 100 µM |  | > 100 µM | > 100 µM | > 100 µM | > 100 µM |  | > 100 µM |  |  |  |  |  |  |  |  |
| Cc1ccccc1N1C(=O)/C(=C/c2ccc(N(CCC#N)CCC#N)cc2)N=C1c1cc([N+](=O)[O-])ccc1Cl | > 100 µM |  |  | > 100 µM | > 100 µM | > 100 µM | > 100 µM |  |  | > 100 µM |  |  |  |  |  |  |  |  |
| O=c1nc2occc2cn1C1CC(O)C(CO)O1 (stereo unspecified) | > 100 µM | > 100 µM | > 100 µM | > 100 µM | > 100 µM |  |  | > 100 µM |  | > 100 µM |  |  |  |  |  |  |  |  |
